Our source for the TGI and GI50 values is PubChem BioAssay (NCI).

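1) Cells in 96-well plates. 2) Compound, 48 h, 5 concentrations. 3) Linear interpolation between surrounding doses. 4) Unreached endpoint = highest concentration. At the GI50, growth is halved. Definition used: TGI = concentration required for complete inhibition of growth.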

Some test systems named below: SF-268 CNS; DU-145 prostate; MDA-MB-231 breast; HOP-92 NSCLC; SK-MEL-5 melanoma; CAKI-1 renal; RXF 393 renal; EKVX NSCLC; SK-MEL-2 melanoma; MCF7 breast.
Experiment in all cases: growth of human tumour cells (NCI), 48 h

Regarding `OC(c1ccco1)C(F)(F)c1nc2ccccc2o1` (stereo not drawn), the TGI with SF-268 CNS, with DU-145 prostate, with MDA-MB-231 breast, with HOP-92 NSCLC, in the experiment on SK-MEL-5 melanoma and with CAKI-1 renal was more than 100 µM in each case. The TGI with RXF 393 renal, in the experiment on EKVX NSCLC, in the experiment on SK-MEL-2 melanoma and in the experiment on MCF7 breast was more than 100 µM each time.

Turning to `COc1ccc(CCCCl)c(C2=NCCc3ccccc32)c1`, the TGI in the experiment on SF-268 CNS was more than 100 µM; in the experiment on DU-145 prostate, more than 100 µM; in the experiment on MDA-MB-231 breast it was more than 100 µM; with HOP-92 NSCLC, more than 100 µM; with SK-MEL-5 melanoma it was 45 µM; in the experiment on CAKI-1 renal it was more than 100 µM. Also, the TGI in the experiment with RXF 393 renal, in the experiment on EKVX NSCLC, in the experiment on SK-MEL-2 melanoma and with MCF7 breast was more than 100 µM in each case.

Regarding `CCOP(=O)(OCC)c1cc(-c2ccccc2)ccc1N`, the TGI in the experiment with SF-268 CNS, with DU-145 prostate, with MDA-MB-231 breast, in the experiment with HOP-92 NSCLC, in the experiment on SK-MEL-5 melanoma and with CAKI-1 renal was more than 100 µM each time. In addition, the TGI in the experiment with RXF 393 renal, with EKVX NSCLC, in the experiment with SK-MEL-2 melanoma and in the experiment with MCF7 breast was more than 100 µM throughout.

With `COc1cc2c(cc1O)CC[n+]1cc3c(OC)c(OC)ccc3cc1-2`, the TGI in the experiment on SF-268 CNS, in the experiment with DU-145 prostate, with MDA-MB-231 breast, with HOP-92 NSCLC, in the experiment on SK-MEL-5 melanoma and in the experiment with CAKI-1 renal was more than 100 µM each time. Also, the TGI with EKVX NSCLC, in the experiment with SK-MEL-2 melanoma and in the experiment with MCF7 breast was more than 100 µM throughout.

`Cc1ccc(C(=O)c2[nH]c(Nc3cc(C)ccn3)c(C(=S)Nc3ccccc3)c2N)cc1`: the TGI in the experiment on SF-268 CNS, in the experiment on DU-145 prostate, in the experiment on MDA-MB-231 breast, in the experiment on HOP-92 NSCLC, in the experiment with SK-MEL-5 melanoma and in the experiment with CAKI-1 renal was more than 100 µM in each case. In addition, the TGI in the experiment on RXF 393 renal, with EKVX NSCLC, with SK-MEL-2 melanoma and in the experiment with MCF7 breast was more than 100 µM each time.

On to `C(=N/Nc1ccc(-c2nc3ccccc3[nH]2)cc1)/c1c(-c2ccccc2)[nH]c2ccccc12`, for which the TGI is more than 100 µM in the experiment on SF-268 CNS; more than 100 µM with DU-145 prostate; 12 µM in the experiment with MDA-MB-231 breast; more than 100 µM with HOP-92 NSCLC; more than 100 µM in the experiment with SK-MEL-5 melanoma; more than 100 µM in the experiment with CAKI-1 renal. Besides, the TGI in the experiment on RXF 393 renal was more than 100 µM; in the experiment with EKVX NSCLC, more than 100 µM; in the experiment with SK-MEL-2 melanoma, 0.794 µM; in the experiment with MCF7 breast it was more than 100 µM.

In the case of `CN(C)c1nc(=NCc2ccccn2)ss1`, the TGI in the experiment with SF-268 CNS, in the experiment with DU-145 prostate, with MDA-MB-231 breast, with HOP-92 NSCLC, in the experiment on SK-MEL-5 melanoma and with CAKI-1 renal was more than 10 µM in each case. Besides, the TGI in the experiment on RXF 393 renal, in the experiment on EKVX NSCLC and in the experiment on MCF7 breast was more than 10 µM throughout.

As to `CCOC1NC(=O)c2ccccc21` (stereo not drawn), the TGI in the experiment on SF-268 CNS, in the experiment with DU-145 prostate, in the experiment on MDA-MB-231 breast, in the experiment on HOP-92 NSCLC, with SK-MEL-5 melanoma and in the experiment on RXF 393 renal was more than 100 µM throughout. Besides, the TGI in the experiment with EKVX NSCLC and in the experiment with MCF7 breast was more than 100 µM throughout.

Consider `CC/C=C\C/C=C\C/C=C\CCCCCCCC(=O)OC(COC(=O)CCCCCCCCCCCCCCCCC)COC1OC(CO)C(O)C(O)C1O` (stereo not drawn), for which the TGI with SF-268 CNS, with DU-145 prostate, in the experiment on MDA-MB-231 breast, in the experiment on HOP-92 NSCLC, with SK-MEL-5 melanoma and with CAKI-1 renal was more than 25 µM throughout. The TGI with RXF 393 renal, with EKVX NSCLC, in the experiment with SK-MEL-2 melanoma and in the experiment with MCF7 breast was more than 25 µM each time.

`CC1(C)OC(CCO)CN1C(=O)OCc1ccccc1` (stereo not drawn): the TGI in the experiment with DU-145 prostate, in the experiment on MDA-MB-231 breast, with HOP-92 NSCLC, in the experiment with SK-MEL-5 melanoma, in the experiment with CAKI-1 renal and in the experiment on RXF 393 renal was more than 100 µM in each case. The TGI with EKVX NSCLC, in the experiment on SK-MEL-2 melanoma and in the experiment with MCF7 breast was more than 100 µM throughout.

Take `COc1ccc(/C=N/Nc2nc3ccccc3c(=O)n2-c2ccccc2)c(OCc2ccccc2)c1`: the TGI in the experiment with SF-268 CNS, with DU-145 prostate, with MDA-MB-231 breast, in the experiment on HOP-92 NSCLC, in the experiment with SK-MEL-5 melanoma and with CAKI-1 renal was more than 100 µM in each case. For the same compound, the TGI in the experiment with RXF 393 renal, with EKVX NSCLC, with SK-MEL-2 melanoma and in the experiment on MCF7 breast was more than 100 µM each time.

Regarding `CC[P+](C#Cc1ccccc1)(c1ccccc1)c1ccccc1`, the TGI in the experiment with SF-268 CNS was determined as 8.71 µM; in the experiment with DU-145 prostate it was 10.4 µM; with MDA-MB-231 breast it was 9.41 µM; in the experiment with HOP-92 NSCLC, 5.9 µM; in the experiment on SK-MEL-5 melanoma it was 2.84 µM; in the experiment on CAKI-1 renal it was 32.8 µM. The TGI with RXF 393 renal worked out at 4.39 µM; in the experiment on EKVX NSCLC it was 11.9 µM; in the experiment with SK-MEL-2 melanoma it was 4.3 µM; with MCF7 breast, 10.8 µM.

With `Nc1nc(Nc2ccc(OCc3cccc(F)c3)cc2)c2c(n1)[nH]c1ccc(O)cc12`, the GI50 was 3.1 µM with SF-268 CNS; 4.22 µM in the experiment with DU-145 prostate; 2.71 µM with MDA-MB-231 breast; 2.37 µM in the experiment with HOP-92 NSCLC; 4.17 µM with SK-MEL-5 melanoma; 1.78 µM with RXF 393 renal. In addition, the GI50 in the experiment with EKVX NSCLC was 8.86 µM; in the experiment with SK-MEL-2 melanoma it was 2.61 µM; in the experiment on MCF7 breast, 2.87 µM. Further, the TGI in the experiment on SF-268 CNS came out at 12.2 µM; in the experiment on DU-145 prostate, 15.6 µM; in the experiment on MDA-MB-231 breast, 7.33 µM; in the experiment on HOP-92 NSCLC it was 7.98 µM; in the experiment on SK-MEL-5 melanoma, 15.2 µM; with RXF 393 renal, 3.55 µM. For the same compound, the TGI is 29.4 µM in the experiment on EKVX NSCLC, 7.71 µM with SK-MEL-2 melanoma and 11.8 µM in the experiment on MCF7 breast.
